The source of these data is ChEMBL document CHEMBL5465560, “Selectivity Literature for EUbOPEN Chemogenomic Library” (2024).

The target in data set [1] is Homeodomain-interacting protein kinase 3 (Homo sapiens, UniProt Q9H422). Briefly: Selectivity interaction (ProQinase) EUB0000171b HIPK3.
Data set [2] addresses Bone morphogenetic protein receptor type-1B (Homo sapiens, UniProt O00238). The note with it: at 10 µM.
Data set [3] deals with STE20-like serine/threonine-protein kinase (Homo sapiens, UniProt Q9H2G2). Particulars: at 10 µM.
The target in data set [4] is T1, Rhodopsin kinase GRK7 (Homo sapiens) (UniProt Q8WTQ7).
T1 sequence (whole entry): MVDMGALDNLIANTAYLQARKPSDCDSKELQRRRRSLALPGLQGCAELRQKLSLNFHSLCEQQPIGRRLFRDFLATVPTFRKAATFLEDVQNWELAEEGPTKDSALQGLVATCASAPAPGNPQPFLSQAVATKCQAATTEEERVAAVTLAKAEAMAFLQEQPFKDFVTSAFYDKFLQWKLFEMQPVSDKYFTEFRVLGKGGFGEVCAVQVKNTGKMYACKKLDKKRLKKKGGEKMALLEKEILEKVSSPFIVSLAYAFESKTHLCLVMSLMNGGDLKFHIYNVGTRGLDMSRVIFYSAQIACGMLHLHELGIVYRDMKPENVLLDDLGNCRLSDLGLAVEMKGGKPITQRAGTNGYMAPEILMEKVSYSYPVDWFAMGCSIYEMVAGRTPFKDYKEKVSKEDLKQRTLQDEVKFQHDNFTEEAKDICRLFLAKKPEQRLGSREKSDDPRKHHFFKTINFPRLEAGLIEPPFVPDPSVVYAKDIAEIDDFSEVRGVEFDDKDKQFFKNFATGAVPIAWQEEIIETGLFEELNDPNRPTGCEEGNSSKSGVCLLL
Briefly: Selectivity interaction (KinomeScan (DiscoverX)) EUB0001049a GRK7. The note with it: at 1 µM.

The target of a further data set is PXR (NR1I2) (Homo sapiens, UniProt O75469). Briefly: Selectivity interaction (Panel of kinases, GPCRs, ion channels and transporters (enzymatic assay)) EUB0000223bCl NR1I2.
In data set [5] the target is Endothelin-1 receptor (Homo sapiens) (UniProt P25101). Briefly: Selectivity interaction (Panel of non-epigenetic targets (kinases, GPCRs, ion channels, and transporters, Eurofins) ) EUB0000271b EDNRA. Particulars: at 1 µM.
Sequence of Endothelin-1 receptor (Homo sapiens) (P25101 whole entry): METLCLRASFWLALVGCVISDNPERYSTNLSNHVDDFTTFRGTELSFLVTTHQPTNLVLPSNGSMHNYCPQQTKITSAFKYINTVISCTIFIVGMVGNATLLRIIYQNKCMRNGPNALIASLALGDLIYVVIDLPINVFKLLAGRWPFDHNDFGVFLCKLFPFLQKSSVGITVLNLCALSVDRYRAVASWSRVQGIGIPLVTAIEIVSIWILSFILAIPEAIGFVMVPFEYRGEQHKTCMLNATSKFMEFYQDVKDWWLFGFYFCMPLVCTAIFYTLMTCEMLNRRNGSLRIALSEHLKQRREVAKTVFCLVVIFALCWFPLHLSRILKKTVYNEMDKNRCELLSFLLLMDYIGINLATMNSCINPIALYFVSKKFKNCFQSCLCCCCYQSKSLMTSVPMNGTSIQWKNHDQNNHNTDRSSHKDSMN
Data set [6] concerns the target Potassium voltage-gated channel subfamily A member 1 (Homo sapiens) (UniProt Q09470). Briefly: Selectivity interaction (Panel of non-epigenetic targets (kinases, GPCRs, ion channels, and transporters, Eurofins) ) EUB0000271b KCNA1. The note with it: at 1 µM.
Data set [7] addresses Serine/threonine-protein kinase PLK2 (Homo sapiens, UniProt Q9NYY3). Briefly: Selectivity interaction (KinomeScan (DiscoverX)) EUB0000666a PLK2. Particulars: at 10 µM.
In data set [8] the target is T2, Histone-arginine methyltransferase CARM1 (Homo sapiens) (UniProt Q86X55).
T2 sequence (whole entry): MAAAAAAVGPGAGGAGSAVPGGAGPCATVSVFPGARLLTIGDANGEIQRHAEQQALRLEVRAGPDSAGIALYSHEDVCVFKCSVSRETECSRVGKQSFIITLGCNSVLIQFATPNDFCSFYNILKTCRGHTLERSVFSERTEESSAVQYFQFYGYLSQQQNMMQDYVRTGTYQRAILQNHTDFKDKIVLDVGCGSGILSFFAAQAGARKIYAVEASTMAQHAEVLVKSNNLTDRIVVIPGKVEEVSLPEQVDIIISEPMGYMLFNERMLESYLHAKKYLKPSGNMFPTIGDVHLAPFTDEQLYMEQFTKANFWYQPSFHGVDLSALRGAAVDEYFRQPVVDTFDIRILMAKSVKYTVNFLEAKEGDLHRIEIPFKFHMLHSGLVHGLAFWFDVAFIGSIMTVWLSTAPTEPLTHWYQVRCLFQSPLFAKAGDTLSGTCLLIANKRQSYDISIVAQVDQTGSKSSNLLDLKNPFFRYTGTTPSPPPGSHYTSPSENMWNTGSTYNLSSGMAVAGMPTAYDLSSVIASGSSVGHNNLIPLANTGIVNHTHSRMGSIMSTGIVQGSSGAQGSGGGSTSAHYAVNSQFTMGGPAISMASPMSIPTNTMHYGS
Particulars: U-266, at 3 µM.

The target of data set [9] is ALK tyrosine kinase receptor (Homo sapiens, UniProt Q9UM73). Briefly: Selectivity interaction (KinomeScan (DiscoverX)) EUB0000607a ALK. The note with it: at 10 µM.
The target of data set [10] is RAF proto-oncogene serine/threonine-protein kinase (Homo sapiens) (UniProt P04049). Briefly: Selectivity interaction (KinomeScan (DiscoverX)) EUB0000607a RAF1. Particulars: at 10 µM.
Data set [11] deals with Phosphatidylinositol 3-kinase catalytic subunit type 3 (Homo sapiens, UniProt Q8NEB9). Briefly: Selectivity interaction (ActivX KiNativ screen (kinase selectivity in THP-1 cell lysates)) EUB0000639a PIK3C3. It is filed as subcellular. The note with it: lysate, at 0.04 µM.
Data set [12] deals with Mast/stem cell growth factor receptor Kit (Homo sapiens, UniProt P10721). Briefly: Selectivity interaction (Kinase panel (33PanQinase(R) Activity Assay)) EUB0000877a KIT.
Sequence of Mast/stem cell growth factor receptor Kit (P10721 whole entry): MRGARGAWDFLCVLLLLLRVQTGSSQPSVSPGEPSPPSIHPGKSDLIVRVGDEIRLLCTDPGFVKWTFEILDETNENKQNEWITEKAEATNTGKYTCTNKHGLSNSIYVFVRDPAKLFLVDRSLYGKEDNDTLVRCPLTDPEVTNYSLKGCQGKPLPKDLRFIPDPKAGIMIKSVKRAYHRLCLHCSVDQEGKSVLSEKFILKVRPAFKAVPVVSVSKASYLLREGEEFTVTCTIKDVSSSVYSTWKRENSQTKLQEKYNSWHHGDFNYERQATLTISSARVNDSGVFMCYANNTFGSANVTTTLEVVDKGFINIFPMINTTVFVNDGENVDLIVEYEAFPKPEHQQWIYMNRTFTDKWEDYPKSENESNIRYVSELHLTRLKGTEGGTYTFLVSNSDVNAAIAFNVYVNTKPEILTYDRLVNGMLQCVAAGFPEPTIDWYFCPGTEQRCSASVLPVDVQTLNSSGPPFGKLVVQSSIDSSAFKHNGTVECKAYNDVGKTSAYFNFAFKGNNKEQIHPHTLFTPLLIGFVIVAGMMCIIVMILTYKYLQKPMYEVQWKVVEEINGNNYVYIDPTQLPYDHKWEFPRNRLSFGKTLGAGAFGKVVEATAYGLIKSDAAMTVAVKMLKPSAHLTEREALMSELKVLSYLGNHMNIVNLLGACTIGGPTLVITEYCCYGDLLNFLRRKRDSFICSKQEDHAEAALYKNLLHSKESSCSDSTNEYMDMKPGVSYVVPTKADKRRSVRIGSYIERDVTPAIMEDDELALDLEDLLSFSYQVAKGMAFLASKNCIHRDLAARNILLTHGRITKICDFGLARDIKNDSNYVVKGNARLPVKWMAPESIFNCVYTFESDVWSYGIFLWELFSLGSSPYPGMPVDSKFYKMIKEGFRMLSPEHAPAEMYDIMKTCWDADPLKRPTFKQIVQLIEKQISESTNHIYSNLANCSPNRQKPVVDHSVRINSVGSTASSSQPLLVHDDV
Data set [13] concerns the target Serine/threonine-protein kinase 10 (Homo sapiens) (UniProt O94804). Briefly: Selectivity interaction (ActivX KiNativ screen (ex vivo kinase selectivity in human PBMCs)) EUB0001619a STK10. The note with it: PBMC, at 1 µM. It is filed as cell-based.
In data set [14] the target is T3, Inhibitor of nuclear factor kappa-B kinase subunit alpha (Homo sapiens) (UniProt O15111).
T3 sequence (whole entry): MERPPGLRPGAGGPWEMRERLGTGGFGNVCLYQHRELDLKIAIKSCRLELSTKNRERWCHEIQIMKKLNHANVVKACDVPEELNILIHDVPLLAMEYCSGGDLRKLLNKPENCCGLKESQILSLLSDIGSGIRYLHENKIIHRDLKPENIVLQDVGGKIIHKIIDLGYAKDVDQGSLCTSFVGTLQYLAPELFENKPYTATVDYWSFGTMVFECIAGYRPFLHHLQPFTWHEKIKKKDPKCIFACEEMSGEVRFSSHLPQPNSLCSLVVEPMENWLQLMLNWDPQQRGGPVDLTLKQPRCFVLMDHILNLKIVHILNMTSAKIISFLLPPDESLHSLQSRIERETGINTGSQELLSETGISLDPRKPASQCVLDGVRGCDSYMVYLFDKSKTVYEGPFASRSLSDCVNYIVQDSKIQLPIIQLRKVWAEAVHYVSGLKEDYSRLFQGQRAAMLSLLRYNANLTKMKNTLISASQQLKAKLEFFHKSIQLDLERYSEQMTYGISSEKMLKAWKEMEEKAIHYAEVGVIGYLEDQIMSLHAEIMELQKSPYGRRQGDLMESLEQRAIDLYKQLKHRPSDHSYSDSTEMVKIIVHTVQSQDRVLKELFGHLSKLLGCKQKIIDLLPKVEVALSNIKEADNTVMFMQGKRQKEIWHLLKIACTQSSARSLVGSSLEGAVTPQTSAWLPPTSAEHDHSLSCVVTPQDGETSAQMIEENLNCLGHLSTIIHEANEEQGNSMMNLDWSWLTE
Briefly: Selectivity interaction (KinomeScan (DiscoverX)) EUB0000618a CHUK. Particulars: at 10 µM.

Sequence of Homeodomain-interacting protein kinase 3 (Q9H422 whole entry, looked up): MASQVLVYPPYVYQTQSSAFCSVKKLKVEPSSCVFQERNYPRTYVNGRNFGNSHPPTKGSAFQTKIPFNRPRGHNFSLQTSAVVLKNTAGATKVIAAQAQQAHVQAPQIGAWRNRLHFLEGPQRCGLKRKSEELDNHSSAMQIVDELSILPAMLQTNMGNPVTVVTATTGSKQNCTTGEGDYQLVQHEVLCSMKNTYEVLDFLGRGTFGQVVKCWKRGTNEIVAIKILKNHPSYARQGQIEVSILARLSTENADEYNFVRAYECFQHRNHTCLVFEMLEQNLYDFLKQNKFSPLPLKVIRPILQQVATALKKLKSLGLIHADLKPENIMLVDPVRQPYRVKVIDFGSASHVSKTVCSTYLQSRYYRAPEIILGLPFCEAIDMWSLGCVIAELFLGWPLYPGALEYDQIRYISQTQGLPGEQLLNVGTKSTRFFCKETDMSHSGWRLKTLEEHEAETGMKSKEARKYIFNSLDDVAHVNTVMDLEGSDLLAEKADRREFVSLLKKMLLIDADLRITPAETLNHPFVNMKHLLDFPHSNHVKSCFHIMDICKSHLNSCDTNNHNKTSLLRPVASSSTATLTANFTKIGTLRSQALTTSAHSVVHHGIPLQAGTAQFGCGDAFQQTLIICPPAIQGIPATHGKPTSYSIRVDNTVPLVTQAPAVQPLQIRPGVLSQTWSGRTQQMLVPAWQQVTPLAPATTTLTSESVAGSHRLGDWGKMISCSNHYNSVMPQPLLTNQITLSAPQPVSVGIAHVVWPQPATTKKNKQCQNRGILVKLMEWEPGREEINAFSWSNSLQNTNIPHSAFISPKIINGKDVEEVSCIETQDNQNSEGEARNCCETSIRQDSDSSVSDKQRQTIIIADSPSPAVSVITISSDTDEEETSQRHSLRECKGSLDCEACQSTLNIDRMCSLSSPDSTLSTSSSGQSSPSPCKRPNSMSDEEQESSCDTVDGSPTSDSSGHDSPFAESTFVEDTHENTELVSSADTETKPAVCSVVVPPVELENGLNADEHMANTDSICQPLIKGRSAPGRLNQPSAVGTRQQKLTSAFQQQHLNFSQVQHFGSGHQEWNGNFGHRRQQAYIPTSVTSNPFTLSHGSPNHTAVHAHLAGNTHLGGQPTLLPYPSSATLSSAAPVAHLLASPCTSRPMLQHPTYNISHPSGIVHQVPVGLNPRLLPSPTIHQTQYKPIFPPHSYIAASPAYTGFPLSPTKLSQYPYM
Sequence of Potassium voltage-gated channel subfamily A member 1 (Homo sapiens) (Q09470 whole entry): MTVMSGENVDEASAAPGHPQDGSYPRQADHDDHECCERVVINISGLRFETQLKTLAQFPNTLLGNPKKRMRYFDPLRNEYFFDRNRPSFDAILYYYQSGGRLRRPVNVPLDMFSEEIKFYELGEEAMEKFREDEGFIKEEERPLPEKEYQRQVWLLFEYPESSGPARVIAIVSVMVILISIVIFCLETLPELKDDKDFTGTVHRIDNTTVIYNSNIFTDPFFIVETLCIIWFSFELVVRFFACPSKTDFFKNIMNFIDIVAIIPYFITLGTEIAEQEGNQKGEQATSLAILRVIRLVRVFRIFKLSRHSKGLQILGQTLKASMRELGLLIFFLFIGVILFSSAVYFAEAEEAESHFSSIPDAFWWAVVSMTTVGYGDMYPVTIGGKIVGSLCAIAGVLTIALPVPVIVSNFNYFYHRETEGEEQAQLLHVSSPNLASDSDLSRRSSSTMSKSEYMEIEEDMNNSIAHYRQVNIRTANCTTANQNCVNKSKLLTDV
Sequence of Serine/threonine-protein kinase PLK2 (Q9NYY3 whole entry, looked up): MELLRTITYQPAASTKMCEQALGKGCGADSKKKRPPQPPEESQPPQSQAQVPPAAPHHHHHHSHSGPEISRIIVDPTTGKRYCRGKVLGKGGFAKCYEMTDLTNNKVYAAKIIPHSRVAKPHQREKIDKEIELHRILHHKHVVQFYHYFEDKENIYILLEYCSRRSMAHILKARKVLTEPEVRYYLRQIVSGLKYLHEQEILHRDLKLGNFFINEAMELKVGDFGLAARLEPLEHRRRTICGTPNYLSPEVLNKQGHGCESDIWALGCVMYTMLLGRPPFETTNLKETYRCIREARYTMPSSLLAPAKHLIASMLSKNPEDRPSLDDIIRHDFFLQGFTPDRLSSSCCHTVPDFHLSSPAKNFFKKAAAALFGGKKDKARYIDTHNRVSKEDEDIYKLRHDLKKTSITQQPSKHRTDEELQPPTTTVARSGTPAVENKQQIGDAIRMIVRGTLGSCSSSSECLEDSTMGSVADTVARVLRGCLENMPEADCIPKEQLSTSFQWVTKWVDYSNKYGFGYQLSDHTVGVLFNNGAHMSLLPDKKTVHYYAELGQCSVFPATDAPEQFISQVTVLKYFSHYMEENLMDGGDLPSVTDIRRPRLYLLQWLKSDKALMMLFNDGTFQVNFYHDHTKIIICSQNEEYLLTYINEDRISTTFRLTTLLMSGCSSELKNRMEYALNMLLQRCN
Sequence of Serine/threonine-protein kinase 10 (Homo sapiens) (O94804 whole entry, looked up): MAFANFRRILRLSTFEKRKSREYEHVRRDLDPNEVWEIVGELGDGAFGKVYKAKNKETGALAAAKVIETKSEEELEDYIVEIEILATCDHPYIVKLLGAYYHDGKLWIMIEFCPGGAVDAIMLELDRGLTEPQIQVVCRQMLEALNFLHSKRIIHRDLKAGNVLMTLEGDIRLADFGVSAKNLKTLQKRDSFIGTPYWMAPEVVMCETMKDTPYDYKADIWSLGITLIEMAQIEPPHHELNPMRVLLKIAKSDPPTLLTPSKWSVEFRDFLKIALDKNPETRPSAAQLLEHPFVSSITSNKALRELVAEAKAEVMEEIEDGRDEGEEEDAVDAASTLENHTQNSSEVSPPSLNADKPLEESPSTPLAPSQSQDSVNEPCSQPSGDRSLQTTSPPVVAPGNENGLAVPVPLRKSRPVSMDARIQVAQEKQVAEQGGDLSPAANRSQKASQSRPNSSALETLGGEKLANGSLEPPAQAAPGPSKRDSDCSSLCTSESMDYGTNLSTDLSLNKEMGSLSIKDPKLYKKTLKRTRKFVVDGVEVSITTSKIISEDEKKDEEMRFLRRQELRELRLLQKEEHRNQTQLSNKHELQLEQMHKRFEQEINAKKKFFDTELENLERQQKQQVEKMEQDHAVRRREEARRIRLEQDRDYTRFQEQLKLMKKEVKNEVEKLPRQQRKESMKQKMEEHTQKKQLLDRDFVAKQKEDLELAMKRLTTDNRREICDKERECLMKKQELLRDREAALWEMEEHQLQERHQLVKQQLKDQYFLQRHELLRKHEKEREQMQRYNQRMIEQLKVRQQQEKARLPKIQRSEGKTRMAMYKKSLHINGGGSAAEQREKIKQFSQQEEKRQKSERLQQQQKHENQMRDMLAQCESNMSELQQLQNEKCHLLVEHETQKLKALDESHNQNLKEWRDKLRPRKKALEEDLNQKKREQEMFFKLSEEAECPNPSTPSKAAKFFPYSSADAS

For the molecule `C=CC(=O)Nc1cccc(C(=O)Nc2ccc(Nc3cc(-c4[nH]c(SC)nc4C)ccn3)cc2)c1`, the results for the % of control in data set [1] (at 1 µM) and in data set [1] (at 5 µM) were 93% and 90%, respectively.

With `Cc1cc([C@@H](C)Nc2ccccc2C(=O)O)c2nc(N3CCOCC3)cc(=O)n2c1` [AZD-6482], the % of control in data set [2] was found to be 97%; in data set [3], 100%.

On to `COc1cc(Nc2nc(C)cc(-c3cnn4nc(OC)ccc34)n2)cc(C(F)(F)F)c1`, for which, in data set [4], the % of control stood at 83%.

On PXR (NR1I2), `COc1cc(C(=O)N2CC[C@@H](O)[C@@H](N)C2)cc2nc(-c3cc4ccccc4n3CC3CC3)n(C)c12` showed an XC50 of over 50.1 µM. With `Cc1cc(C)cc([C@@H]2c3cc(C)ccc3NC(=O)CN2C(=O)c2ccc(Br)s2)c1`, the results for the % of inhibition in data set [5] and in data set [6] were -24% and -10%, respectively. Regarding `O=C(NOC[C@H](O)CO)c1ccc(F)c(F)c1Nc1ccc(I)cc1F`, the % of control in data set [7] worked out at 100%. Consider `CNCCN1CCC(c2cc(CN(C)C(=O)c3cccc(Oc4ccccc4)c3)ccn2)CC1`, for which the % of growth rate in data set [8] was -24.4%. As to `CNC(=O)Nc1ccc(-c2nc(N3CC4CCC(C3)O4)c3cnn(C4CCC5(CC4)OCCO5)c3n2)cc1`, the % of control was 42% in [9] and 100% in [10].

Turning to `CC[C@@H]1[C@H](F)C(=O)N[C@@H]1COc1nccc2cc(C(N)=O)c(OC)cc12` [ZIMLOVISERTIB], the % of inhibition in [11] was -7%. In the case of `CCC(=O)N1CC[C@H](Nc2ncnc3c2CN(c2cnc(OC)c(C(F)(F)F)c2)CC3)C1` [LENIOLISIB], the IC50 (usually the concentration that inhibits the measured activity by half) in data set [12] is over 10 µM. Turning to `N#Cc1cccc(-c2c[nH]c3ncnc(N4CCOCC4)c23)c1`, the % of inhibition in [13] is 54%. As for `O[C@H]1CC[C@H](Nc2ncc3nc(Nc4c(F)cc(F)cc4F)n([C@H]4CCOC4)c3n2)CC1`, the % of control in data set [14] was found to be 86%.
